Assay: Human HepG2 cell viability assay in 384 well format
Format: toxicity, cell-based
Design: dose 125 nL, time 70.5 hour; concentration not given beside the values
Settings: HepG2 cells, read-out: Inhibition

Structure (SMILES) | cytotoxicity at 70.5 h
CCc1n[nH]c(C2CN(C(=O)c3ccc4c(c3)COC4)CCO2)n1 (stereo not drawn) | 18%
CN(CCc1ccncc1)CC1CCCN1c1cccnn1 (stereo not drawn) | 25.1%
CN(Cc1ccccn1)CC1CCCN1c1cccnn1 (stereo not drawn) | -5.71%
COc1cccc(COCC(=O)N2CCCC2Cn2cccn2)c1 (stereo not drawn) | -11.8%
Cc1cnn(CC2CCCN2C(=O)c2cn(C)c3ccccc23)c1 (stereo not drawn) | -9.04%
CN(Cc1cccc(C(N)=O)c1)CC1CCCN1c1cccnn1 (stereo not drawn) | -10.2%
CC(Cn1cccn1)NC(=O)NCc1cccnc1 (stereo not drawn) | -9.07%
Cc1ccc(C(=O)NC2CCN(C(=O)Nc3ccccn3)CC2)s1 | 11.7%
Cc1nc(CN2CCOC(Cn3cccn3)C2)nc2ccccc12 (stereo not drawn) | -12.1%
COc1ccc(C(=O)N(C)Cc2nnc3ccccn23)cc1 | 10.4%
COc1cc(OC)cc(C(=O)N(C)Cc2nnc3ccccn23)c1 | -1.71%
Cc1cnn(CC2CN(Cc3nc4ccccc4n3C)CCO2)c1 (stereo not drawn) | 9.31%
CCN1CCN(C2CCN(Cc3nnc(C(C)C)o3)CC2)C1=O | -7.93%
O=C(c1nccc2ccccc12)N1CCCCC1Cn1cccn1 (stereo not drawn) | -5.86%
COc1ccc(CC(=O)N2CCCCC2Cn2cccn2)cc1 (stereo not drawn) | -3.73%
CNC(=O)c1ccc(C(=O)N2CCC(Nc3cccnn3)CC2)cn1 | -4.73%
CC(=O)Nc1nc(CN2CCOC(Cn3nc(C)cc3C)C2)cs1 (stereo not drawn) | 10.6%
Cc1cnn(CCNCC(=O)NCC2(c3ccccc3)CC2)c1 | 31.1%
CCc1nc(C2CCCN(C(=O)c3ccc(Cl)cc3)C2)no1 (stereo not drawn) | 5.79%
O=C(NCCCn1ccnc1)NCC(c1ccco1)N1CCCCC1 (stereo not drawn) | 4.46%
Cc1cc(C)n(CC2CCCN2C(=O)c2ccnc(N(C)C)c2)n1 (stereo not drawn) | 10.6%
O=C(c1cc(F)ccc1F)C1CCN(C(=O)c2ccco2)CC1 | -3.7%
CC(C)c1nc(C2CCCN(C(=O)c3ccc4[nH]nnc4c3)C2)no1 (stereo not drawn) | -4%
c1ccc(CCCN2CCOC(Cn3cccn3)C2)cc1 (stereo not drawn) | -6.46%

Structure (SMILES) | cytotoxicity at 70.5 h
O=C(NCCCNc1ccc(C(F)(F)F)cn1)c1ccc(F)cc1Br | -6.12%
CN1CC(C(=O)NCc2cccnc2-n2cccn2)CC1=O (stereo not drawn) | -6.03%
CCOc1ccc(OCC(O)CN2CCN(S(C)(=O)=O)CC2)cc1 (stereo not drawn) | 0.695%
c1ccc2oc(CN3CCOC(Cn4cccn4)C3)nc2c1 (stereo not drawn) | -0.847%
CCc1nc(C2CCCN(C(=O)c3cccc(C(N)=O)c3)C2)no1 (stereo not drawn) | 1.02%
Cc1ccc(CNC(=O)Cc2c(C)nc3c(c2C)c(=O)[nH]n3C)cc1 | 4.93%
O=C(NCCc1ccn(-c2ccccc2)n1)N1CCCC(CO)C1 (stereo not drawn) | 1.65%
O=C(NCCc1ccn(-c2ccccc2)n1)N1CCSCC1 | 22.7%
Cc1cnn(CC2CCCN2C(=O)c2csc(-c3nnc[nH]3)n2)c1 (stereo not drawn) | -5%
CN(C)c1cc(C(=O)N2CCCCC2Cn2cccn2)ccn1 (stereo not drawn) | -1.9%
CC(=O)Nc1nc(C(=O)N2CCCCC2Cn2cc(C)cn2)cs1 (stereo not drawn) | 5.83%
Cc1cnn(CC2CCCCN2C(=O)c2ccc3c(c2)COC3)c1 (stereo not drawn) | 4.39%
CCc1ccc(OCC(O)CN2CCN(CC)CC2)cc1 (stereo not drawn) | 20.5%
CCN(Cc1ccc2c(c1)OCO2)Cc1nc2c(cnn2C)c(=O)[nH]1 | 7.27%
c1cnnc(N2CCCC2CNCc2noc(C3CC3)n2)c1 (stereo not drawn) | 27.1%
CCc1ccsc1C(=O)N1CCCN(Cc2cscn2)CC1 | 3.8%
CCc1nc(CNCC2CCCN2c2cccnn2)no1 (stereo not drawn) | -4.56%
COc1ccnc(N2CCCN(C(=O)Cc3ccc(C)s3)CC2)n1 | 22.9%
Cc1ccc(CN(CC(=O)N2CCOC(C)C2)C2CC2)cc1 (stereo not drawn) | -6.74%
Cc1ccsc1C(=O)N1CCN(Cc2cscn2)CC1 | -3.03%
CC1CN(C(=O)CN(Cc2ccco2)Cc2cccs2)CCO1 (stereo not drawn) | 3%
CC1CN(C(=O)CN(Cc2ccccc2)C2CC2)CCO1 (stereo not drawn) | -9.67%
Cc1cc(CN2Cc3ccccc3CC2c2nnc(C)o2)no1 (stereo not drawn) | 1.64%
CS(=O)(=O)NC1CCCN(C(=O)Nc2cccnc2)C1 (stereo not drawn) | 25.1%

Structure (SMILES) | cytotoxicity at 70.5 h
CS(=O)(=O)NC1CCCN(C(=O)c2cccnc2)C1 (stereo not drawn) | -8.57%
CC(C)C(CNC(=O)Nc1cn[nH]c1)N1CCOCC1 (stereo not drawn) | -5.6%
CCc1nnc(C2Cc3ccccc3CN2Cc2nc(C)no2)o1 (stereo not drawn) | -3.78%
CCn1cnnc1CNC(=O)N1CCCCCC1 | -2.16%
CN(C(=O)c1ccc(Cl)cc1)C1CCN(c2ccccn2)CC1 | 2.33%
Cc1nc(C)n(CC2CCCN(CCC(=O)N3CCOCC3)C2)n1 (stereo not drawn) | -4.61%
CC1CN(C(=O)CN(Cc2ccccc2Cl)C2CCCC2)CCO1 (stereo not drawn) | 6.53%
Clc1ccc(-n2cc(CNC3CCc4ncnn4C3)cn2)cc1 (stereo not drawn) | -12.4%
Cc1cnn(CC2CCCN2c2nn3cc(C)nc3s2)c1 (stereo not drawn) | -4.6%
CCc1nccn1C1CCCN(C(=O)Cc2n[nH]c3ccccc23)C1 (stereo not drawn) | -1.24%
Cc1nc2ccccc2nc1CN1CCCC1c1c(C)nn(C)c1C (stereo not drawn) | -4.26%
Cc1ccsc1CNc1cc(N2CCCC2CO)ncn1 (stereo not drawn) | -4.35%
Cc1[nH]ncc1C(=O)N1CCCC(n2cncn2)C1 (stereo not drawn) | -1.06%
Cc1nc(C)n(C2CCCN(C(=O)c3cc(C(N)=O)cs3)C2)n1 (stereo not drawn) | -17.1%
CCc1n[nH]c(C2CN(CCc3cccs3)CCO2)n1 (stereo not drawn) | 22.1%
O=C(NCc1nnc2ccccn12)N1CCc2sccc2C1 | -21.7%
c1cnn(CC2CN(CC3CCCC3)CCO2)c1 (stereo not drawn) | -9.69%
COc1ccc(C)cc1CN1CCCC1Cn1nc(C)nc1C (stereo not drawn) | -9.81%
CCc1n[nH]c(C2CN(CCc3ccncc3)CCO2)n1 (stereo not drawn) | -7.11%
Cc1nc(C2CCCN(C(=O)C(C)(C)n3cc(Cl)cn3)C2)no1 (stereo not drawn) | -13.5%
COc1cccc(CCC(=O)N2CCCC(n3cc(C)cn3)C2)c1 (stereo not drawn) | -15.8%
Cc1cnn(CC2CCCN2C(=O)c2ccc3[nH]nnc3c2)c1 (stereo not drawn) | 17.5%
CC(C)c1nc(CN2CCN(C(C)c3nc(C4CC4)no3)CC2)no1 (stereo not drawn) | -4.05%
O=C(NCCCn1cncn1)NCC(c1ccco1)N1CCCCC1 (stereo not drawn) | -18.7%

Structure (SMILES) | cytotoxicity at 70.5 h
CC(Cn1cccn1)NC(=O)NCc1ccc(S(N)(=O)=O)cc1 (stereo not drawn) | -7.93%
Cc1cnn(CC2CN(Cc3nc(N)c4ccccc4n3)CCO2)c1 (stereo not drawn) | 22.8%
Cc1cnn(CC2CCCCN2C(=O)c2ccc3nnc(C)n3c2)c1 (stereo not drawn) | -10.9%
O=C(CCc1cccs1)N1CCC(N2CCNC2=O)CC1 | -0.95%
Cc1ccc(C(=O)NC2CCN(C(=O)Nc3ccccn3)CC2)o1 | 16.1%
CCN(Cc1nc2c(cnn2C)c(=O)[nH]1)c1cccc(Cl)c1 | -15.8%
Cc1cc(F)ccc1S(=O)(=O)NCc1cccc(C(=O)N2CCCC2)c1 | -14.8%
COc1ccc(C(=O)N(C)Cc2nnc3ccccn23)c(OC)c1 | -15.7%
O=C(c1ccc(-n2cccn2)nc1)N1CCC(Nc2cccnn2)CC1 | -18.2%
O=C(NCc1cccnc1)C1CC(=O)N(CC2CC2)C1 (stereo not drawn) | -6.68%
CCc1ccc(OCC(O)CN2CCC(O)CC2)cc1 (stereo not drawn) | 24.8%
COc1cccc(CNC(=O)CN2CCCCC2Cn2cccn2)c1 (stereo not drawn) | -7.75%
CCn1cc(CN2CCCN(C(=O)Cc3ccc(C)nc3)CC2)cn1 | -9.56%
Cc1cnn(CC2CN(Cc3nc4ccccc4nc3C)CCO2)c1 (stereo not drawn) | -0.573%
Cc1ccc(C(=O)N2CCN(C(=O)Nc3ccccn3)CC2)o1 | 29.1%
CCc1n[nH]c(C2CN(C(=O)c3ccsc3)CCO2)n1 (stereo not drawn) | -9.96%
O=C(NCCCn1cncn1)NCC(c1ccccc1)N1CCCC1 (stereo not drawn) | 0.00173%
O=C(NCc1cccnc1-n1cccn1)C1CC(=O)N(CC2CC2)C1 (stereo not drawn) | -13.2%
Cc1nnc(C2Cc3ccccc3CN2Cc2ncc(C(C)(C)C)o2)o1 (stereo not drawn) | 34.5%
CCn1c(C)nnc1CN(C)C1CCN(CCCOC)C1 (stereo not drawn) | 3.25%
COc1ccnc(N2CCN(C(=O)Cc3ccc(C)s3)CC2)n1 | -5.58%
CN(C)c1cc(CNC(=O)c2cn(-c3ccc(F)cc3)nn2)ccn1 | -8.15%
CN(C(=O)c1ccccc1Cl)C1CCN(c2ccccn2)CC1 | -3.26%
CN(C(=O)c1cccc2[nH]ncc12)C1CCN(c2ccccn2)CC1 | 31.6%

Structure (SMILES) | cytotoxicity at 70.5 h
COc1ccnc(N2CCN(C(=O)NCc3ccc(C)s3)CC2)n1 | 1.2%
Cc1ccsc1CNC(=O)Cc1c(C)nc2c(c1C)c(=O)[nH]n2C | -12.2%
Cc1cn2c(n1)CCC(NC(=O)c1nc(C)ncc1Cl)C2 (stereo not drawn) | -8.31%
O=C(Cn1cccn1)NCC1(c2ccccc2)CC1 | 24.2%
CC1CN(C(=O)CN(Cc2ccco2)C2CC2)CCO1 (stereo not drawn) | -10.6%
CC(C)COC(C)C(=O)NCc1cc(F)cc(F)c1 (stereo not drawn) | -13.3%
Cc1noc(C)c1CNCC1CCCN1c1cccnn1 (stereo not drawn) | 22.6%
O=C(CNCCn1cccn1)NCC1(c2ccccc2)CC1 | -4.79%
Cc1cccc(C(=O)NCc2ccnc(N(C)C)c2)n1 | 0.0987%
Cc1nc(C)n(CC2CCCN(CCNC(=O)OC(C)(C)C)C2)n1 (stereo not drawn) | -0.801%
CCc1ccc(C(=O)N2CCCC(c3noc(CC)n3)C2)o1 (stereo not drawn) | -2.81%
CCc1nc(CN2CCCC(NCc3cc(C)no3)C2)no1 (stereo not drawn) | -8.45%
Cc1noc(CN2Cc3ccccc3CC2c2nnc(C)o2)n1 (stereo not drawn) | 4.3%
CC1CCN(C(=O)CN(Cc2ccco2)C2CC2)CC1 | -9.01%
CCc1n[nH]c(C2CN(Cc3nnc(C4CC4)n3C)CCO2)n1 (stereo not drawn) | 27.9%
Cc1nc2ccccc2nc1CN1CCCC1Cn1cncn1 (stereo not drawn) | 19.7%
CCn1cc(CN2CCCN(C(=O)c3ccn(C)c(=O)c3)CC2)cn1 | 20.6%
Cc1nc(CN2CCCN(CC(=O)Nc3cccnc3)CC2)no1 | 7.78%
Cc1nc(C)n(C2CCCN(C(=O)c3ccccc3C)C2)n1 (stereo not drawn) | -7.9%
CNC(=O)c1ccc(CN2CCC(N(C)Cc3noc(C)n3)C2)cc1 (stereo not drawn) | -0.459%
O=C(COCc1ccccc1Cl)N1CCCC(n2cccn2)C1 (stereo not drawn) | 3.17%
CC(C)c1nn(C)c(Cl)c1CNCC(O)c1cccc(F)c1 (stereo not drawn) | -10.3%

From ChEMBL document CHEMBL3507680, “University of Dundee, Gates Library screen for HepG2 cell viability”
